{
  "source": "patent US20020160961A1",
  "about": "“Compositions for the treatment of the catabolic state of prolonged critical illness” (priority 1999, published 2002)",
  "origin": "cited, not measured here",
  "system": "pulsatile TSH secretion",
  "settings": "TRH infused together with GHRP-2; catabolic state of prolonged critical illness",
  "data": [
    {"smiles": "NC(=O)[C@@H]1CCCN1C(=O)[C@H](Cc1cnc[nH]1)NC(=O)[C@@H]1CCC(=O)N1", "note": "[TRH, thyrotropin-releasing hormone]", "values": [
      {"measurement": "pulsatile TSH secretion", "result": "increased pulsatile TSH secretion"}
    ]}
  ]
}
